Data: the NIST ThermoML archive (doi:10.1016/j.fluid.2007.11.005)

Details: Liquid, Bellows volumetry

CCCCn1cc[n+](C)c1.F[P-](F)(F)(F)(F)F [1-butyl-3-methylimidazolium hexafluorophosphate]
mass density [kg/m3]
Details	312.8 K	332.6 K	353.2 K	372.7 K	392.8 K	412.8 K	432.6 K	452.5 K	472.3 K
100 kPa	1352	–	–	–	–	–	–	–	–
10000 kPa	1358	1342	1325	1310	1299	1284	1269	1254	1240
20000 kPa	1363	1347	1332	1317	1305	1290	1276	1262	1248
30000 kPa	1368	1353	1338	1323	1311	1297	1283	1269	1256
40000 kPa	1373	1358	1343	1329	1317	1303	1290	1276	1263
50000 kPa	1378	1363	1349	1334	1323	1309	1296	1283	1270
60000 kPa	1383	1368	1354	1339	1329	1315	1302	1289	1276
70000 kPa	1388	1373	1359	1345	1334	1321	1308	1295	1282
80000 kPa	1392	1378	1364	1350	1339	1326	1313	1301	1289
90000 kPa	1396	1382	1368	1355	1344	1331	1319	1306	1294
100000 kPa	1400	1387	1373	1360	1349	1336	1324	1312	1300
110000 kPa	1405	1391	1377	1364	1354	1341	1329	1317	1305
120000 kPa	1409	1395	1382	1369	1359	1346	1334	1322	1311
130000 kPa	1412	1399	1386	1373	1363	1351	1339	1327	1316
140000 kPa	1416	1403	1390	1377	1367	1355	1343	1332	1320
150000 kPa	1420	1407	1394	1381	1372	1360	1348	1336	1325
160000 kPa	1424	1411	1398	1385	1376	1364	1352	1341	1330
170000 kPa	1427	1415	1402	1389	1380	1368	1357	1345	1334
180000 kPa	1431	1418	1405	1393	1384	1372	1361	1350	1339
190000 kPa	1435	1422	1409	1397	1388	1376	1365	1354	1343
200000 kPa	1438	1425	1413	1401	1392	1380	1369	1358	1347
